The IC50 is the concentration at which inhibition is half-maximal.

IC50, inhibition and inhibition in vivo data for 20 molecules are collected here from patent US20060223792A1, “Phenyl and pyridyl LTA4H modulators” (priority 2005, published 2006).

Assay [1] concerns LTB4 production by calcium ionophore-stimulated murine blood. Description: LTB4 production by calcium ionophore-stimulated murine blood for LTA4H inhibitor activity. The format is cell-based, CD-1 mice. The settings on record: diluted CD-1 mouse whole blood, calcium ionophore A23187, LTB4 by enzyme-linked immunoassay. On the procedure:
LTB4 Production by Calcium Ionophore-Stimulated Murine Blood for LTA4H Inhibitor Activity
CD-1 mice were sacrificed, and blood was collected in heparin-containing syringes by cardiac puncture. The blood was diluted 1:15 with RPMI-1640 medium, and 200-μL aliquots of the diluted blood were added to wells of a 96-well microtiter plate. LTA4H inhibitor test compounds were prepared at different concentrations in RPMI-1640 medium containing […], and 20 μL of each test solution was added to a well containing diluted whole blood (final DMSO concentration of 0.1%). After the microtiter plate contents were incubated for 15 min at 37° C. in a humidified incubator, calcium ionophore A23187 (Sigma Chemical Co., St. Louis, Mo.) was added to each sample well (final concentration=20 ng/mL). The incubation was continued under the same conditions for an additional 10 min to allow LTB4 formation. The reaction was terminated by centrifugation (833×g, 10 min at 4° C.), and supernatants were analyzed for LTB4 by a commercially available enzyme-linked immunoassay (Cayman Chemical Co.) according to the manufacturer's instructions. Positive controls, under essentially identical conditions but without addition of an inhibitor compound, and negative unstimulated controls, containing all assay components except calcium ionophore, were routinely run in each experiment. IC50 values were determined by fitting the activity data at different compound concentrations to a 4-parameter equation using the Grafit program (Erithacus software).

Assay [2] deals with T1, recombinant human LTA4 hydrolase (rhLTA4H) (Homo sapiens, UniProt P09960).
T1 construct: made in house; host or cells: Spodoptera frugiperda (Sf-9) cells, baculovirus (pFastBac1)
T1 sequence (P09960 1-611): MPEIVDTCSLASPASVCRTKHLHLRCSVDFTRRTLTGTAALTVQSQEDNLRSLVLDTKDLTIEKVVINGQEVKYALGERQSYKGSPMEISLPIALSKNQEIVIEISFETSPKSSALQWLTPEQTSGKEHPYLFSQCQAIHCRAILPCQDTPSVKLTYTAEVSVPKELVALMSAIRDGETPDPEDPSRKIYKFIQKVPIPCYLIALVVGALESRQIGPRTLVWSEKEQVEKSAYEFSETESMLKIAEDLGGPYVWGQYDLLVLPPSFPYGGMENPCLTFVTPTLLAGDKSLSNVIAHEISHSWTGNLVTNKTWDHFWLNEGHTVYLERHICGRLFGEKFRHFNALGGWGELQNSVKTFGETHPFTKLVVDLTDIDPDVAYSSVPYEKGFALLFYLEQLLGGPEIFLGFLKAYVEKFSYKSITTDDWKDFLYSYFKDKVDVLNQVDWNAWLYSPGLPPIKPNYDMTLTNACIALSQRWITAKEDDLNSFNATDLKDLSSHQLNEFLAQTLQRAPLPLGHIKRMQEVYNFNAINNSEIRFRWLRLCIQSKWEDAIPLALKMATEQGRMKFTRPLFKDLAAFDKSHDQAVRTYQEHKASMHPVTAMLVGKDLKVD
As to the kind of experiment: Recombinant human LTA4 hydrolase assay for LTA4 hydrolase inhibitor activity. The format is biochemical. The procedure, abridged: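 Sf-9-expressed rhLTA4H (36 ng) preincubated 10 min at rt with compound in 0.1 M potassium phosphate pH 7.4, 5 mg/mL fatty-acid-free BSA; 9 ng LTA4 free acid added, 10 min at rt in 225 μL. LTB4 measured by enzyme immunoassay; IC50 from 4-parameter fit, mean of one to three determinations.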

The test system of assay [3] is ex vivo stimulated LTB4 production. Description: Murine arachidonic acid-induced inflammation model: ex vivo stimulated LTB4 production in blood. To be noted: Mus musculus; 30 mg/kg oral gavage, female Balb/c mice; blood taken 3 h after arachidonic acid, stimulated ex vivo with A23187; read-out: % Inh. LTB4. On the procedure:
(§1) Murine Arachidonic Acid-Induced Inflammation Model
(§2) LTA4H inhibitor compounds of the present invention were dissolved in 20% cyclodextran/H2O at a concentration of 3 mg/mL. The solutions were administered by oral gavage to female Balb/c mice weighing approximately 20 grams each (0.2 mL per mouse, 30 mg of LTA4H inhibitor compound per kg). Sixty minutes after being administered an LTA4 inhibitor, each mouse received topical application of 20 μL of arachidonic acid (100 mg/mL in acetone) to the left ear and 20 μL of acetone only to the right ear. After 3 h, the mice were sacrificed, blood was withdrawn in heparinized syringes, and 8 mm ear biopsies were taken. Ear biopsies were weighed to determine edema and then frozen at −80° C. until needed for determination of neutrophil influx.
One hundred-microliter aliquots of heparinized blood were added to wells of a microtiter plate, along with equal volumes of RPMI-1640 medium, and calcium ionophore A23187 was added to each sample well (final concentration=[…]). The microtiter plate contents were incubated for 10 min at 37° C. in a humidified incubator. The reaction was terminated by centrifugation (833×g, 10 min at 4° C.). Supernatants were analyzed for LTB4 by a commercially available enzyme-linked immunoassay (Cayman Chemical Co.) in accordance with the manufacturer's instructions. The percent inhibition of ex vivo stimulated LTB4 production (% Inh. LTB4) was determined by comparison to animals treated identically except that the solution admininstered by oral gavage was devoid of inhibitor compound.

The subject of assay [4] is neutrophil influx (myeloperoxidase, MPO). As to the kind of experiment: Murine arachidonic acid-induced inflammation model: neutrophil influx in ear (myeloperoxidase activity). The format is in vivo, female Balb/c mice. The settings on record: Mus musculus, read-out: % Inh. MPO. On the procedure: as §1, §2
Neutrophil influx was quantified by measuring the activity of myeloperoxidase (MPO), a neutrophil-specific enzyme. The ear biopsies were homogenized in 0.5 mL extraction buffer (0.3 M sucrose, 0.22% (w/v) hexadecyl trimethyl ammonium bromide (CTAB), and 2.5 mM citrate prepared from 0.5 M citrate stock solution (pH 5.0)). Debris was removed by centrifugation at 14000×g for 10 min. Aliquots of 10 μL of the resulting supernatant were added to wells of a microtiter plate, along with 90-μL aliquots of dilution buffer (10 mM citrate, 0.22% CTAB), followed by addition of 20 μL TMB liquid substrate system (Sigma Chemical Co.) to each sample well. The microtiter plate contents were held at rt for 1 h. The reaction was stopped by addition of 100 μL 1 M H2SO4 to each sample well, and the myeloperoxidase activity in each sample was determined from the absorbance at 405 nm. The background value from the right ear, treated only with acetone, was subtracted from that for the left ear, treated with arachidonic acid in acetone, for each animal. The percent inhibition of neutrophil influx (% lnh. MPO) by compounds of the invention was determined by comparison to animals treated identically, except that the solution administered by oral gavage was devoid of inhibitor compound.

The mark [5] stands for this setting: recombinant human LTA4H, LTB4 quantified by enzyme-linked immunoassay, average of one to three determinations, read-out: IC50.

Where a name gives a salt, the structure may show the parent alone. Read-outs that look alike come from different tables or passages of the source.

For the molecule `O=C(Nc1cccc(O)c1)Oc1ccc(OCCN2CCC(O)(c3ccccc3)CC2)cc1` [Example 11, (3-hydroxy-phenyl)-carbamic acid 4-[2-(4-hydroxy-4-phenyl-piperidin-1-yl)-ethoxy]-phenyl ester], the half-maximal inhibitory concentration (IC50) was found to be 12 nM in assay [1] and 0.3 nM in assay [2] (setting [5]).

Regarding `CCCCN(CCCC)CCCc1ccc(OC(=O)Nc2ccccc2)cc1` [Example 12, Phenyl-carbamic acid 4-(3-dibutylamino-propyl)-phenyl ester hydrochloride], the IC50 in assay [1] stood at 88 nM; in assay [2], 3 nM.

In the case of `O=C(Cc1ccc(OCCN2CCC(O)(c3ccccc3)CC2)cc1)Nc1ccccc1O` [Example 13, N-(2—hydroxy-phenyl)-2-{4-[2-(4-hydroxy-4-phenyl-piperidin-1-yl)-ethoxy]-phenyl}-acetamide], the figures for the 50% inhibitory concentration (IC50) in assay [1] and in assay [2] (setting [5]) were 47 nM and 10 nM, respectively.

As to `O=C(Nc1ccccc1)Oc1ccc(OCCN2CCCCC2)cc1` [Example 15, Phenyl-carbamic acid 4-(2-piperidin-1-yl-ethoxy)-phenyl ester], in assay [3], the inhibition at 30 mg/kg was determined as 78%. The concentration for half-maximal inhibition (IC50) in assay [2] (setting [5]) amounted to 13 nM. For the same molecule, the inhibition in vivo at 30 mg/kg in assay [4] (po, 3 h) worked out at 92%.

As to `O=C(COc1ccc(OCCN2CCCCC2)cc1)c1ccccc1` [Example 24, 1-Phenyl-2-[4-(2-piperidin-1-yl-ethoxy)-phenoxy]-ethanone], the half-inhibitory concentration (IC50) in assay [1] came out at 202 nM; in assay [2] (setting [5]), 58 nM.

As to `c1ccc(CCOc2ccc(CCN3CCC(c4nnn[nH]4)CC3)cc2)cc1` [Example 30, 1-[2-(4-Phenethyloxy-phenyl)-ethyl]-4-(1H-tetrazol-5-yl)-piperidine], the IC50 in assay [1] is 169 nM; in assay [2] (setting [5]), 27 nM.

Consider `O=C(O)CCN(CCc1ccc(OCCc2ccccc2)cc1)C1CC1` [Example 35, 3-{Cyclopropyl-[2-(4-phenethyloxy-phenyl)-ethyl]-amino}-propionic acid trifluoroacetic acid salt], for which, in assay [3], the inhibition at 30 mg/kg was 84%. Further, the IC50 in assay [2] (setting [5]) is 0.5 nM. In addition, the inhibition in vivo at 30 mg/kg in assay [4] (30 mg/kg oral gavage 60 min before topical arachidonic acid to ear, female Balb/c mice, ear biopsies after 3 h) was 92%.

On to `O=C(Nc1ccccc1)Oc1ccc(OCCN2CCC(O)(c3ccccc3)CC2)cc1` [Example 47, Phenyl-carbamic acid 4-[2-(4-hydroxy-4-phenyl-piperidin-1-yl)-ethoxy]-phenyl ester], for which the inhibition at 30 mg/kg in assay [3] was 80%. The IC50 in assay [2] (setting [5]) came out at 1 nM. Also, the inhibition in vivo at 30 mg/kg in assay [4] (po, 3 h) worked out at 95%.

`CCCCN(CCCC)CCOc1ccc(OC(=O)Nc2ccccc2)cc1` [Example 48, Phenyl-carbamic acid 4-(2-dibutylamino-ethoxy)-phenyl ester]: the inhibition at 30 mg/kg in assay [3] was found to be 69%. Further, in assay [2] (setting [5]), the IC50 amounted to 9 nM. For the same molecule, the inhibition in vivo at 30 mg/kg in assay [4] (po, 3 h) is 66%.

In the case of `O=C(Nc1ccccc1)Oc1ccc(OCCN2CCC(CO)CC2)cc1` [Example 51, Phenyl-carbamic acid 4-[2-(4-hydroxymethyl-piperidin-1-yl)-ethoxy]-phenyl ester], the concentration for half-maximal inhibition (IC50) was 12 nM in assay [1] and 4 nM in assay [2] (setting [5]).

On to `O=C(Nc1ccsc1)Oc1ccc(OCCN2CCCCC2)cc1` [Example 64, Thiophen-3-yl-carbamic acid 4-(2-piperidin-1-yl-ethoxy)-phenyl ester], for which the half-inhibitory concentration (IC50) in assay [1] was found to be 48 nM; in assay [2] (setting [5]), 3 nM.

As to `c1ccc(CCOc2ccc(OCCN3CCCCC3)cc2)cc1` [Example 67, 1-[2-(4-Phenethyloxy-phenoxy)-ethyl]-piperidine], the results for the IC50 in assay [1] and in assay [2] (setting [5]) were 175 nM and 23 nM, respectively.

Regarding `c1ccc2c(c1)CC(Oc1ccc(OCCN3CCCCC3)cc1)C2` [Example 69, 1-{2-[4-(Indan-2-yloxy)-phenoxy]-ethyl}-piperidine], the half-inhibitory concentration (IC50) in assay [1] amounted to 215 nM; in assay [2] (setting [5]), 20 nM.

On to `NC(=O)C1CCN(CCc2ccc(OCCc3ccccc3)cc2)CC1` [Example 79, 1-[2-(4-Phenethyloxy-phenyl)-ethyl]-piperidine-4-carboxylic acid amide], for which the results for the IC50 in assay [1] and in assay [2] (setting [5]) were 192 nM and 50 nM, respectively.

In the case of `CS(=O)(=O)NC1CCN(Cc2ccc(OCCc3ccccc3)cc2)CC1` [Example 93, N-[1-(4-Phenethyloxy-benzyl)-piperidin-4-yl]methanesulfonamide], the IC50 in assay [1] turned out to be 16 nM; in assay [2] (setting [5]) it was 18 nM.

Consider `c1ccc(CCOc2ccc(CN3CCC(c4nnn[nH]4)CC3)cc2)cc1` [Example 104, 1-(4-Phenethyloxy-benzyl)-4-(1H-tetrazol-5-yl)-piperidine], for which the half-maximal inhibitory concentration (IC50) in assay [1] was 284 nM; in assay [2] (setting [5]), 61 nM.

Regarding `O=C1CCCN1C1CCN(Cc2ccc(OCCCc3ccccc3)cc2)CC1` [Example 107, 1-{1-[4-(3-Phenyl-propoxy)-benzyl]-piperidin-4-yl}-pyrrolidin-2-one], the IC50 turned out to be 33 nM in assay [1] and 5 nM in assay [2] (setting [5]).

On to `CC(=O)NC1CCN(Cc2ccc(OCCc3ccccc3)cc2)CC1` [Example 113, N-[1-(4-Phenethyloxy-benzyl)-piperidin-4-yl]-acetamide], for which the results for the IC50 in assay [1] and in assay [2] (setting [5]) were 56 nM and 13 nM, respectively.

As to `CS(=O)(=O)NC1CCN(Cc2ccc(OCCCc3ccccc3)cc2)CC1` [Example 119, N-{1-[4-(3-Phenyl-propoxy)-benzyl]-piperidin-4-yl}-methanesulfonamide], the IC50 in assay [1] is 93 nM; in assay [2] (setting [5]), 19 nM.

Take `CC(=O)NC1CCN(Cc2ccc(OCCCc3ccccc3)cc2)CC1` [Example 120, N-{1-[4-(3-Phenyl-propoxy)-benzyl]-piperidin-4-yl}-acetamide]: the figures for the concentration for half-maximal inhibition (IC50) in assay [1] and in assay [2] (setting [5]) were 126 nM and 25 nM, respectively.
